Source: US9884067B2, “Androgen receptor down-regulating agents and uses thereof” (UNIVERSITY OF MARYLAND EASTERN SHORE, priority 2013, dated 2018)
Several values for one entry are separate records, joined by “and”; a condition that tells them apart may be missing. Equal entries are not always repeated.

Legend:
[1] = molecular target: T1, AR (Homo sapiens, UniProt P10275, T878A); assay: Immunocytochemical analysis of AR expression in LNCaP cells; assay type: cell-based; conditions: 5 μM for 48 h
T1 construct: host or cells: LNCaP
T1 sequence (P10275 1-920 T878A): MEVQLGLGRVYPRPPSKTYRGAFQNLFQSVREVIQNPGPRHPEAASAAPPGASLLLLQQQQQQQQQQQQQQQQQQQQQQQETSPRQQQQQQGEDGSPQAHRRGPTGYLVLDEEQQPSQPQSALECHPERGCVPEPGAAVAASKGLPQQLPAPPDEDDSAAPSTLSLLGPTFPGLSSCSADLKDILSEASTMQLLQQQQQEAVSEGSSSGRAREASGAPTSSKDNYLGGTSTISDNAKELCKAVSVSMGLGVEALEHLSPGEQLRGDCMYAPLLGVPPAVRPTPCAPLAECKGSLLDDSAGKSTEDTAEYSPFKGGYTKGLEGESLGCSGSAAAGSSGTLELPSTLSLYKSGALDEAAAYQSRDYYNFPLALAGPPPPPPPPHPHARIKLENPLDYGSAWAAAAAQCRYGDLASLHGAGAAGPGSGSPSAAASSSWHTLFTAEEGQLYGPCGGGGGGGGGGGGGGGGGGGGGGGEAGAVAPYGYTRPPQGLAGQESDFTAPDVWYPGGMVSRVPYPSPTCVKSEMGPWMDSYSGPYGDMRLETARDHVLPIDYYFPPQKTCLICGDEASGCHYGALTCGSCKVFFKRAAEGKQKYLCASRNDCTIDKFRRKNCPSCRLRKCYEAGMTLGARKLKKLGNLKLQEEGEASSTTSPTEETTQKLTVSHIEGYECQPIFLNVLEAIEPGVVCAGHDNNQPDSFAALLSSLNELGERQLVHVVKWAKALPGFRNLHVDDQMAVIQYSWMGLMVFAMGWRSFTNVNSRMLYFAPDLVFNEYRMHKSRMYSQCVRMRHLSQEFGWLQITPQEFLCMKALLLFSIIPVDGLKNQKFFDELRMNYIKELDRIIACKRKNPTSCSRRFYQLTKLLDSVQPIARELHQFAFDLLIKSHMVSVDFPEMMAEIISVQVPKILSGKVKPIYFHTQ

[2] = molecular target: T2, AR in LNCaP cells (Homo sapiens, UniProt P10275, T878A); assay: Whole cell competitive binding assay with [3H]R1881; conditions: read-out: inhibition of [3H]R1881 binding / displacement
T2 sequence (P10275 1-920 T878A): T1 sequence (P10275 1-920 T878A)
Description: The androgen receptor competitive binding assays were performed with the synthetic androgen methyltrienolone [^3H]R1881. […] To determine the kinetics of [^3H]R1881 binding to the LNCaP AR cells were plated (2-3×10^5 cells/well) in 24 well multiwell dishes in steroid-free medium and allowed to attach. […] Following a 2 hour incubation period at 37° C., cells were washed twice with ice-cold DPBS and solubilized in DPBS containing 0.5% SDS and 20% glycerol. Extracts were removed and cell associated radioactivity counted in a scintillation counter. The data was analyzed, including Kd and Bmax determination, by nonlinear regression using Graphpad Prism software (GraphPad Software, Inc, San Diego, Calif.). When the concentration of [^3H]R1881 required to almost saturate AR in both cell lines was established (5.0 nM), the ability of the test compounds (1 nM-10 μM) to displace [^3H]R1881 (5.0 nM) from the receptors was determined as described above. The IC50 of each compound was determined by nonlinear regression with Graphpad Prism software (GraphPad Software, Inc, San Diego, Calif.).

[3] = molecular target: T3, AR-3 (also called AR-V7) (Homo sapiens, UniProt P10275); assay: Down-regulation of truncated AR splice variant, western blot in CWR22rv1 cells; assay type: cell-based; conditions: CWR22rv1 prostate cancer cell line
T3 construct: endogenous in cells; host or cells: CWR22Rv1
T3 sequence (P10275 1-644 isoform P10275-3): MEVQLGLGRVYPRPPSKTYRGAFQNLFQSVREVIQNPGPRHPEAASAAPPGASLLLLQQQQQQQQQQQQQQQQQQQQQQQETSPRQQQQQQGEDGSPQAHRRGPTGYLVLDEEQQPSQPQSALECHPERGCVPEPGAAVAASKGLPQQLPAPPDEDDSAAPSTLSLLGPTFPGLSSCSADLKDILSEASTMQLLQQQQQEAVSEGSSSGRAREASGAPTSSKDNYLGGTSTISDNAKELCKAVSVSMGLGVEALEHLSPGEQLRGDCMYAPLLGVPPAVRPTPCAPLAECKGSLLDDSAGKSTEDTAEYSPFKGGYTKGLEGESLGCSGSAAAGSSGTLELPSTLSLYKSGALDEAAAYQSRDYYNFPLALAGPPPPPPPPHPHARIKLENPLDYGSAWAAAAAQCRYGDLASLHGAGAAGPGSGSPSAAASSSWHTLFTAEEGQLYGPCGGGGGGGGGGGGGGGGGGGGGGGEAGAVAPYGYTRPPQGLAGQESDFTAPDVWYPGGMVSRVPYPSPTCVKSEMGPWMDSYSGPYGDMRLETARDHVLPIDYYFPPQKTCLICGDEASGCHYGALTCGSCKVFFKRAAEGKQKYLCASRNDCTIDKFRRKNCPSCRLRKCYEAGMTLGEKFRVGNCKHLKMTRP
Description: (§1) Due to the potential implication of AR splice variants lacking the ligand-binding domain (truncated AR) in driving the progression of CRPC, the effects of the compounds on the down-regulation of AR-3 (also called AR-V7) were determined.
(§2) For the Western blot analyses, LNCaP or CWR22v1 prostate cancer cells were cultured. The cells were then treated with the indicated compounds and whole cell lysates were prepared using RIPA lysis buffer (Sigma Aldrich) and protease and phosphatase inhibitors (Sigma Aldrich). All of the antibodies were ordered from cell signaling technology. Protein content was determined using the Bradford Assay (Bio-Rad, Hercules, Calif., USA). Protein was subjected to SDS-PAGE and transferred onto nitrocellulosemembrane. Membranes were then incubated with secondary antibody (cell signaling technology) at room temperature for 1 hour. Bands were visualized by chemiluminescence (Millipore). Protein expression was normalized to β-actin and densitometry was carried out using Image J or ImageQuant 5.0 (Molecular Dynamics, Sunnyvale, Calif., USA).

[4] = molecular target: T1, AR; assay: AR down-regulation, western blot analysis in LNCaP cells; assay type: cell-based; conditions: at 15 μM, 24 h
Description: For the Western blot analyses, LNCaP or CWR22v1 prostate cancer cells were cultured. The cells were then treated with the indicated compounds and whole cell lysates were prepared using RIPA lysis buffer (Sigma Aldrich) and protease and phosphatase inhibitors (Sigma Aldrich). All of the antibodies were ordered from cell signaling technology. Protein content was determined using the Bradford Assay (Bio-Rad, Hercules, Calif., USA). Protein was subjected to SDS-PAGE and transferred onto nitrocellulosemembrane. Membranes were then incubated with secondary antibody (cell signaling technology) at room temperature for 1 hour. Bands were visualized by chemiluminescence (Millipore). Protein expression was normalized to β-actin and densitometry was carried out using Image J or ImageQuant 5.0 (Molecular Dynamics, Sunnyvale, Calif., USA). CWR22Rv1 cells were used for endogenous levels of splice variant AR-3. Protein levels were analyzed with respective antibodies; full length AR and β-actin antibodies were purchased from cell signaling, antibody specific for splice variant AR-3 was obtained from Dr. Yun Qiu, University of Maryland, School of Medicine, Baltimore.

[5] = molecular target: T4, human CYP17A1 (CYP171dH) (Homo sapiens, UniProt P05093); assay: CYP17 inhibition studies; assay type: biochemical; conditions: each in duplicate, from dose-response curves
T4 sequence (P05093 with tags, fused parts or gaps limits assumed): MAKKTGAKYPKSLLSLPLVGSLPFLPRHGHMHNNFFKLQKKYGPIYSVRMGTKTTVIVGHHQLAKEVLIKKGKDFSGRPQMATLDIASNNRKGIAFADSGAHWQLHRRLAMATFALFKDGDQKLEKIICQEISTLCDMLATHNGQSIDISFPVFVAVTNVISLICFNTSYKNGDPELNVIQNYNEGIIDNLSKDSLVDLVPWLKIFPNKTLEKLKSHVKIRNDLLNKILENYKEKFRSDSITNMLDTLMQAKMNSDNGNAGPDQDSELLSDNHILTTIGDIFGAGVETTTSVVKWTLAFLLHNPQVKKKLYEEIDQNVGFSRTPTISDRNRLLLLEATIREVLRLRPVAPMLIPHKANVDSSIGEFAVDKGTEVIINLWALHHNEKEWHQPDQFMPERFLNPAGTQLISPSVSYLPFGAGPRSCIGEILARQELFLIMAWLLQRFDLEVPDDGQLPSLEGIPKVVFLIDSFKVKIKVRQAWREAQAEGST
Description: Some compounds were evaluated for their ability to inhibit CYP17 enzyme. A truncated version of human CYP17A1 (CYP171dH) was expressed in E. coli and then purified to homogeneity.

[6] = test system: full-length AR; assay: Down-regulation of full-length AR, western blot in CWR22rv1 cells; assay type: cell-based, human; conditions: CWR22rv1 prostate cancer cell line
Description: as §1, §2

[7] = test system: LNCaP cells; assay: MTT colorimetric anti-proliferative assay; assay type: cell-based, human
Description: The cells were treated for 7 days with renewal of test compound and media on day 4. On the 7th day, medium was renewed and MTT (3-(4,5-dimethylthiazol-2-yl)-2,5-diphenyl-2H-tetrazolium bromide) (Sigma, St Louis, Mo., USA) solution (0.5 mg MTT per ml of media) was added to the medium such that the ratio of MTT: medium was 1:10. The cells were incubated with MTT for 2 hours. The medium was then aspirated and DMSO was added to solubilize the violet MTT-formazan product.

In the case of `C[C@]12CC[C@H](OC(=O)n3ccnc3)CC1=CC[C@@H]1[C@@H]2CC[C@]2(C)C(n3cnc4ccccc43)=CC[C@@H]12` [Compound 47, 3β-(1H-Imidazole-1-carboxylate)-17-(1H-benzimidazol-1-yl)-androsta-5,16-diene], the “AR levels in the nucleus” value [1] is reported as “significant decrease in AR levels in the nucleus”, the inhibition at 30 µM [2] is reported as 20% and the “down-regulation of truncated AR (AR-3)” value [3] is reported as “significant down-regulation”. For the same compound, the “AR down-regulation, fold more active than compound 5” value [4] was “greater than 8 fold”, the IC50 [5] was 93.7 to 258 µM and 122 µM and the melting point was 194 to 196 °C. For the same compound, the “down-regulation of full-length AR” value [6] was “significant down-regulation”, the GI50 ([7]; Homo sapiens, LNCaP, 168 h, LNCaP, MTT, 7 days, Table 4, read-out: GI50 of C-3 modified compounds) was 0.87 µM and the “fold superior anti-proliferative activity” value ([7]; relative to compound 5) was roughly 4 fold.
